Test results taken from US20030236399A1, “Method of improving the quality of taste of natural sweetner” (Shangdong Hua Xian Stevia Co., Ltd., priority 2002, published 2003).

Tests used:
[1] = background statement; cited from earlier work
[2] = Dissolving under ambient temperature, before and after the process; format: physicochemical
Text: Comparisons have been made between the natural sweetener before and after the process of the present invention and the results are illustrated as follow: […]

[3] = high temperature, high acidity and high alkalinity; cited from earlier work

| Molecule | Sweetness level relative to sucrose [1] | Solubility under ambient temperature ([2]; Sweetness equivalent to 5% sucrose solution) | Solubility under ambient temperature ([2]; Sweetness equivalent to 10% sucrose solution) | Stability of structure [3] | Solubility under ambient temperature ([2]; Sweetness equivalent to 15% sucrose solution) |
| --- | --- | --- | --- | --- | --- |
| C=C1C[C@@]23CC[C@H]4[C@@](C)(CCC[C@@]4(C)C(=O)O[C@@H]4O[C@H](CO)[C@@H](O)[C@H](O)[C@H]4O)[C@@H]2CC[C@]1(O[C@@H]1O[C@H](CO)[C@@H](O)[C@H](O)[C@H]1O[C@@H]1O[C@H](CO)[C@@H](O)[C@H](O)[C@H]1O)C3 [stevioside] | 200-300 times higher than that of sucrose | insoluble under ambient | insoluble under ambient | stable in structure | – |
| α-glycosyl stevioside | – | – | – | – | taste, easy to dissolve under |
